Molecular target: T1, Recombinant yeast Hsp90 (Saccharomyces cerevisiae, UniProt P02829)
T1 construct: made in house
Experiment: Inhibition of Hsp90 ATPase activity, production of inorganic phosphate
Assay type: biochemical
Conditions: incubated with ATP
Experimental: The present invention also evaluated the biological activity of some of the RAD amides prepared in accordance with the present invention. Recombinant yeast Hsp90 was overexpressed and purified according to the procedure of Buchner. Richter, et al., Coordinated ATP Hydrolysis by the Hsp90 Dimer. […] The yeast was a kind gift from Boris Kornikaeve at the University of Kansas Biomedical Research Service Laboratory.
The pure protein was incubated with ATP and one of three RAD amides (the quinone, the 1,4-hydroxy, or the 1,4-methoxy), and the production of inorganic phosphate was determined.

T1 sequence (P02829 whole entry): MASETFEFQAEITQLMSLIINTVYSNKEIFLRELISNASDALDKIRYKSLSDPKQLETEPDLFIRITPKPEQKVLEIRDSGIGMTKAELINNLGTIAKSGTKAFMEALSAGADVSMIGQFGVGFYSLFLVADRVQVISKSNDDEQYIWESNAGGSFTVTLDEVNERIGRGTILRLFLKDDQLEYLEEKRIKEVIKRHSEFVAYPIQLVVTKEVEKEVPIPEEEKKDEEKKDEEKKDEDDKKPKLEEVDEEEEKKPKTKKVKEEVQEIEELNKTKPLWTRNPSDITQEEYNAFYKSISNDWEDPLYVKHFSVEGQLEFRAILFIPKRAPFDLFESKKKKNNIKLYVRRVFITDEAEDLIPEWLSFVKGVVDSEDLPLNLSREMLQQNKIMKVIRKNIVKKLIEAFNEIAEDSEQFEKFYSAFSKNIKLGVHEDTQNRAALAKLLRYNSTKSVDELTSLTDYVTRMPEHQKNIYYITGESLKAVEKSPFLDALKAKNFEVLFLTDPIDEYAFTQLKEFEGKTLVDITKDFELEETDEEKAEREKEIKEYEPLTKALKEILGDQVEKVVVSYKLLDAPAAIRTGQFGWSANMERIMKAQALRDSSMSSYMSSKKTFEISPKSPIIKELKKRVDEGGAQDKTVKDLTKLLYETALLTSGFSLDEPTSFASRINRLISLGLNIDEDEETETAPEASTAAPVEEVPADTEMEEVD

COC(=O)c1c(O)cc(O)c(Cl)c1CCC(=O)NC1=CC(=O)C(OC)=CC1=O [Quinone]
IC50 (IC50 (μm), table): 5.9 µM
IC50 (IC50 / inhibitory activity): 1.8 µM
